Key:
[1] = system: SU-DHL-4-epst; assay: Combination study, ATPLite 72 h, dose matrix (Synergy Score, CI50)
Procedure: (§1) Cells are thawed from a liquid nitrogen preserved state. Once cells have been expanded and divide at their expected doubling times, screening begins. Cells are seeded in growth media in either black 1536-well or 384-well tissue culture treated plates. Cells are then equilibrated in assay plates via centrifugation and placed in incubators attached to the Dosing Modules at 37° C. for 24 hours before treatment. […] These Tzero (To) plates are read using ultra-sensitive luminescence on Envision plate readers (Perkin Elmer). Treated assay plates are incubated with compound for 72 hours. After 72 hours, plates are developed for endpoint analysis using ATPLite. All data points are collected via automated processes, quality controlled and analyzed using Zalicus software.
The measure of effect in the experiment can be the inhibition of cellular response relative to the untreated level (vehicle alone). […] The inhibition ranges from 0% at the untreated level to 100% when T=0. Inhibition levels are negative for agents that actually increase levels.
(§2) Growth Inhibition (GI) is used as a measure of cell viability. […] A GI reading of 100% represents complete growth inhibition—T72 compound-treated and T0 vehicle signals are matched. […] A GI reading of 200% represents complete death of all cells in the culture well. Compounds reaching an activity plateau of GI 200% are considered cytotoxic. GI is calculated by applying the following test and equation:
(§3) Combination analysis data were collected in a 6×6 dose matrix. Synergy is calculated by comparing a combination's response to those of its single compound, against the drug-with-itself dose-additive reference model. Deviations from dose additivity may be assessed visually on an isobologram or numerically with a Combination Index (CI). […] Additive effect is CI=1.0. […] Antagonistic effect is CI>1.0.
(§4) To measure combination effects in excess of Loewe additivity, a scalar measure to characterize the strength of synergistic interaction termed the Synergy Score is devised. The Synergy Score is calculated as:
(§5) The fractional inhibition for each component agent and combination point in the matrix is calculated relative to the median of all vehicle-treated control wells. The Synergy Score equation integrates the experimentally-observed activity volume at each point in the matrix in excess of a model surface numerically derived from the activity of the component agents using the Loewe model for additivity. Additional terms in the Synergy Score equation (above) are used to normalize for various dilution factors used for individual agents and to allow for comparison of synergy scores across an entire experiment. The inclusion of positive inhibition gating or an Idata multiplier removes noise near the zero effect level, and biases results for synergistic interactions at that occur at high activity levels.
Loewe Volume (Loewe Vol) is used to assess the overall magnitude of the combination interaction in excess of the Loewe additivity model. Loewe Volume is particularly useful when distinguishing synergistic increases in a phenotypic activity (positive Loewe Volume) versus synergistic antagonisms (negative Loewe Volume). […] This model defines additivity as a non-synergistic combination interaction where the combination dose matrix surface should be indistinguishable from either drug crossed with itself. The calculation for Loewe additivity is:

[2] = system: OCI-Ly7; assay: as above
[3] = system: RL; assay: as above
[4] = system: WSU-NHL; assay: as above
Procedure: as §1
(§6) where T is treated cell count and V is untreated (vehicle) cell count (at 72 hours). I ranges from 0% (when T=V) to 100% (when T=0). […] The measure of effect in the experiment can be the inhibition of cellular response relative to the untreated level (vehicle alone). […] The inhibition ranges from 0% at the untreated level to 100% when T=0. Inhibition levels are negative for agents that actually increase levels. Other effect measures, such as an activity ratio r=T/V may be more appropriate for some assays. When activity ratios (e.g, fold increase over stimulated control) are being used, the effect can be measured using an induction 1=ln(T/V). With this definition, all effect expressions are the same as for inhibition.
as §2, §3, §4, §5
(§7) Loewe Volume (Loewe Vol) is used to assess the overall magnitude of the combination interaction in excess of the Loewe additivity model. Loewe Volume is particularly useful when distinguishing synergistic increases in a phenotypic activity (positive Loewe Volume) versus synergistic antagonisms (negative Loewe Volume). […] This model defines additivity as a non-synergistic combination interaction where the combination dose matrix surface should be indistinguishable from either drug crossed with itself.

[5] = system: Farage; assay: as above; settings: Farage
[6] = system: KARPAS-422; assay: as above
Procedure: as §1, §6, §2, §3, §4, §5, §7

[7] = system: SU-DHL-10-epst; assay: as above
[8] = system: SU-DHL-6-epst; assay: Combination study of Compound 1 or CAL-101 and a second therapeutic agent (Synergy Score, CI50); assay type: cell-based
[9] = system: DOHH-2; assay: Combination study, ATPLite 72 h, dose matrix (Synergy Score, CI50)

CC[C@H](Nc1ncnc2[nH]cnc12)c1nc2cccc(F)c2c(=O)n1-c1ccccc1 [CAL-101]
CI50 growth inhibition ([1]; combination with Dexamethasone): S (S=0.01 to <0.5) | CI50 inhibition ([1]; combination with Dexamethasone): S (S=0.01 to <0.5) | Synergy Score growth inhibition ([1]; combination with Dexamethasone): A3 (A3=>3) | Synergy Score inhibition ([1]; combination with Dexamethasone): A3 (A3=>3) | CI50 growth inhibition ([1]; combination with LEE011): S (S=0.01 to <0.5) | CI50 inhibition ([1]; combination with LEE011): T (T=0.5 to <0.7) | Synergy Score growth inhibition ([1]; combination with LEE011): A2 (A2=1 to <3) | Synergy Score inhibition ([1]; combination with LEE011): A2 (A2=1 to <3) | CI50 growth inhibition ([1]; combination with PCI-32765): S (S=0.01 to <0.5) | CI50 inhibition ([1]; combination with PCI-32765): S (S=0.01 to <0.5) | Synergy Score growth inhibition ([1]; combination with PCI-32765): A3 (A3=>3) | Synergy Score inhibition ([1]; combination with PCI-32765): A2 (A2=1 to <3) | CI50 growth inhibition ([1]; combination with PD-0332991): S (S=0.01 to <0.5) | CI50 inhibition ([1]; combination with PD-0332991): S (S=0.01 to <0.5) | Synergy Score growth inhibition ([1]; combination with PD-0332991): A3 (A3=>3) | Synergy Score inhibition ([1]; combination with PD-0332991): A2 (A2=1 to <3) | CI50 growth inhibition ([2]; combination with Dexamethasone): S (S=0.01 to <0.5) | CI50 inhibition ([2]; combination with Dexamethasone): T (T=0.5 to <0.7) | Synergy Score growth inhibition ([2]; combination with Dexamethasone): A3 (A3=>3) | Synergy Score inhibition ([2]; combination with Dexamethasone): A2 (A2=1 to <3) | CI50 growth inhibition ([2]; combination with LEE011): W (W=≥1) | Synergy Score growth inhibition ([2]; combination with LEE011): A1 (A1=0.0001 to <1) | Synergy Score inhibition ([2]; combination with LEE011): A1 (A1=0.0001 to <1) | CI50 growth inhibition ([2]; combination with PCI-32765): W (W=≥1) | Synergy Score growth inhibition ([2]; combination with PCI-32765): A1 (A1=0.0001 to <1) | Synergy Score inhibition ([2]; combination with PCI-32765): A1 (A1=0.0001 to <1) | CI50 growth inhibition ([2]; combination with PD-0332991): S (S=0.01 to <0.5) | CI50 inhibition ([2]; combination with PD-0332991): T (T=0.5 to <0.7) | Synergy Score growth inhibition ([2]; combination with PD-0332991): A2 (A2=1 to <3) | Synergy Score inhibition ([2]; combination with PD-0332991): A2 (A2=1 to <3) | CI50 growth inhibition ([3]; combination with Dexamethasone): T (T=0.5 to <0.7) | CI50 inhibition ([3]; combination with Dexamethasone): T (T=0.5 to <0.7) | Synergy Score growth inhibition ([3]; combination with Dexamethasone): A3 (A3=>3) | Synergy Score inhibition ([3]; combination with Dexamethasone): A2 (A2=1 to <3) | CI50 growth inhibition ([3]; combination with LEE011): T (T=0.5 to <0.7) | CI50 inhibition ([3]; combination with LEE011): U (U=0.7 to <1) | Synergy Score growth inhibition ([3]; combination with LEE011): A2 (A2=1 to <3) | Synergy Score inhibition ([3]; combination with LEE011): A1 (A1=0.0001 to <1) | CI50 growth inhibition ([3]; combination with PCI-32765): T (T=0.5 to <0.7) | CI50 inhibition ([3]; combination with PCI-32765): S (S=0.01 to <0.5) | Synergy Score growth inhibition ([3]; combination with PCI-32765): A2 (A2=1 to <3) | Synergy Score inhibition ([3]; combination with PCI-32765): A2 (A2=1 to <3) | CI50 growth inhibition ([3]; combination with PD-0332991): S (S=0.01 to <0.5) | CI50 inhibition ([3]; combination with PD-0332991): S (S=0.01 to <0.5) | Synergy Score growth inhibition ([3]; combination with PD-0332991): A2 (A2=1 to <3) | Synergy Score inhibition ([3]; combination with PD-0332991): A2 (A2=1 to <3) | CI50 growth inhibition ([4]; combination with Dexamethasone): T (T=0.5 to <0.7) | CI50 inhibition ([4]; combination with Dexamethasone): T (T=0.5 to <0.7) | Synergy Score growth inhibition ([4]; combination with Dexamethasone): A3 (A3=>3) | Synergy Score inhibition ([4]; combination with Dexamethasone): A3 (A3=>3) | CI50 growth inhibition ([4]; combination with LEE011): T (T=0.5 to <0.7) | CI50 inhibition ([4]; combination with LEE011): S (S=0.01 to <0.5) | Synergy Score growth inhibition ([4]; combination with LEE011): A2 (A2=1 to <3) | Synergy Score inhibition ([4]; combination with LEE011): A2 (A2=1 to <3) | CI50 growth inhibition ([4]; combination with PCI-32765): S (S=0.01 to <0.5) | CI50 inhibition ([4]; combination with PCI-32765): S (S=0.01 to <0.5) | Synergy Score growth inhibition ([4]; combination with PCI-32765): A3 (A3=>3) | Synergy Score inhibition ([4]; combination with PCI-32765): A3 (A3=>3) | CI50 growth inhibition ([4]; combination with PD-0332991): S (S=0.01 to <0.5) | CI50 inhibition ([4]; combination with PD-0332991): S (S=0.01 to <0.5) | Synergy Score growth inhibition ([4]; combination with PD-0332991): A2 (A2=1 to <3) | Synergy Score inhibition ([4]; combination with PD-0332991): A2 (A2=1 to <3) | CI50 growth inhibition ([5]; combination with Dexamethasone): U (U=0.7 to <1) | CI50 inhibition ([5]; combination with Dexamethasone): S (S=0.01 to <0.5) | Synergy Score growth inhibition ([5]; combination with Dexamethasone): A3 (A3=>3) | Synergy Score inhibition ([5]; combination with Dexamethasone): A3 (A3=>3) | CI50 growth inhibition ([5]; combination with LEE011): W (W=≥1) | CI50 inhibition ([5]; combination with LEE011): W (W=≥1) | Synergy Score growth inhibition ([5]; combination with LEE011): A1 (A1=0.0001 to <1) | Synergy Score inhibition ([5]; combination with LEE011): A1 (A1=0.0001 to <1) | CI50 growth inhibition ([5]; combination with PCI-32765): S (S=0.01 to <0.5) | CI50 inhibition ([5]; combination with PCI-32765): S (S=0.01 to <0.5) | Synergy Score growth inhibition ([5]; combination with PCI-32765): A3 (A3=>3) | Synergy Score inhibition ([5]; combination with PCI-32765): A3 (A3=>3) | CI50 growth inhibition ([5]; combination with PD-0332991): T (T=0.5 to <0.7) | CI50 inhibition ([5]; combination with PD-0332991): T (T=0.5 to <0.7) | Synergy Score growth inhibition ([5]; combination with PD-0332991): A2 (A2=1 to <3) | Synergy Score inhibition ([5]; combination with PD-0332991): A1 (A1=0.0001 to <1) | CI50 growth inhibition ([6]; combination with Dexamethasone): U (U=0.7 to <1) | CI50 inhibition ([6]; combination with Dexamethasone): T (T=0.5 to <0.7) | Synergy Score growth inhibition ([6]; combination with Dexamethasone): A3 (A3=>3) | Synergy Score inhibition ([6]; combination with Dexamethasone): A2 (A2=1 to <3) | CI50 growth inhibition ([6]; combination with LEE011): T (T=0.5 to <0.7) | CI50 inhibition ([6]; combination with LEE011): T (T=0.5 to <0.7) | Synergy Score growth inhibition ([6]; combination with LEE011): A2 (A2=1 to <3) | Synergy Score inhibition ([6]; combination with LEE011): A2 (A2=1 to <3) | CI50 growth inhibition ([6]; combination with PCI-32765): S (S=0.01 to <0.5) | CI50 inhibition ([6]; combination with PCI-32765): S (S=0.01 to <0.5) | Synergy Score growth inhibition ([6]; combination with PCI-32765): A3 (A3=>3) | Synergy Score inhibition ([6]; combination with PCI-32765): A2 (A2=1 to <3) | CI50 growth inhibition ([6]; combination with PD-0332991): S (S=0.01 to <0.5) | CI50 inhibition ([6]; combination with PD-0332991): S (S=0.01 to <0.5) | Synergy Score growth inhibition ([6]; combination with PD-0332991): A3 (A3=>3) | Synergy Score inhibition ([6]; combination with PD-0332991): A2 (A2=1 to <3) | CI50 growth inhibition ([7]; combination with Dexamethasone): S (S=0.01 to <0.5) | CI50 inhibition ([7]; combination with Dexamethasone): S (S=0.01 to <0.5) | Synergy Score growth inhibition ([7]; combination with Dexamethasone): A3 (A3=>3) | Synergy Score inhibition ([7]; combination with Dexamethasone): A2 (A2=1 to <3) | CI50 growth inhibition ([7]; combination with LEE011): T (T=0.5 to <0.7) | CI50 inhibition ([7]; combination with LEE011): T (T=0.5 to <0.7) | Synergy Score growth inhibition ([7]; combination with LEE011): A3 (A3=>3) | Synergy Score inhibition ([7]; combination with LEE011): A2 (A2=1 to <3) | CI50 growth inhibition ([7]; combination with PCI-32765): U (U=0.7 to <1) | CI50 inhibition ([7]; combination with PCI-32765): U (U=0.7 to <1) | Synergy Score growth inhibition ([7]; combination with PCI-32765): A2 (A2=1 to <3) | Synergy Score inhibition ([7]; combination with PCI-32765): A2 (A2=1 to <3) | CI50 growth inhibition ([7]; combination with PD-0332991): S (S=0.01 to <0.5) | CI50 inhibition ([7]; combination with PD-0332991): S (S=0.01 to <0.5) | Synergy Score growth inhibition ([7]; combination with PD-0332991): A3 (A3=>3) | Synergy Score inhibition ([7]; combination with PD-0332991): A3 (A3=>3) | CI50 growth inhibition ([8]; combination with Dexamethasone): T (T=0.5 to <0.7) | CI50 inhibition ([8]; combination with Dexamethasone): S (S=0.01 to <0.5) | Synergy Score growth inhibition ([8]; combination with Dexamethasone): A2 (A2=1 to <3) | Synergy Score inhibition ([8]; combination with Dexamethasone): A2 (A2=1 to <3) | CI50 growth inhibition ([8]; combination with LEE011): S (S=0.01 to <0.5) | CI50 inhibition ([8]; combination with LEE011): S (S=0.01 to <0.5) | Synergy Score growth inhibition ([8]; combination with LEE011): A2 (A2=1 to <3) | Synergy Score inhibition ([8]; combination with LEE011): A2 (A2=1 to <3) | CI50 growth inhibition ([8]; combination with PCI-32765): T (T=0.5 to <0.7) | CI50 inhibition ([8]; combination with PCI-32765): T (T=0.5 to <0.7) | Synergy Score growth inhibition ([8]; combination with PCI-32765): A2 (A2=1 to <3) | Synergy Score inhibition ([8]; combination with PCI-32765): A2 (A2=1 to <3) | CI50 growth inhibition ([8]; combination with PD-0332991): T (T=0.5 to <0.7) | CI50 inhibition ([8]; combination with PD-0332991): T (T=0.5 to <0.7) | Synergy Score growth inhibition ([8]; combination with PD-0332991): A2 (A2=1 to <3) | Synergy Score inhibition ([8]; combination with PD-0332991): A2 (A2=1 to <3) | CI50 growth inhibition ([9]; combination with Dexamethasone): T (T=0.5 to <0.7) | CI50 inhibition ([9]; combination with Dexamethasone): U (U=0.7 to <1) | Synergy Score growth inhibition ([9]; combination with Dexamethasone): A3 (A3=>3) | Synergy Score inhibition ([9]; combination with Dexamethasone): A2 (A2=1 to <3) | CI50 growth inhibition ([9]; combination with LEE011): T (T=0.5 to <0.7) | CI50 inhibition ([9]; combination with LEE011): T (T=0.5 to <0.7) | Synergy Score growth inhibition ([9]; combination with LEE011): A3 (A3=>3) | Synergy Score inhibition ([9]; combination with LEE011): A2 (A2=1 to <3) | CI50 growth inhibition ([9]; combination with PCI-32765): S (S=0.01 to <0.5) | CI50 inhibition ([9]; combination with PCI-32765): S (S=0.01 to <0.5) | Synergy Score growth inhibition ([9]; combination with PCI-32765): A3 (A3=>3) | Synergy Score inhibition ([9]; combination with PCI-32765): A3 (A3=>3) | CI50 growth inhibition ([9]; combination with PD-0332991): T (T=0.5 to <0.7) | CI50 inhibition ([9]; combination with PD-0332991): T (T=0.5 to <0.7) | Synergy Score growth inhibition ([9]; combination with PD-0332991): A3 (A3=>3) | Synergy Score inhibition ([9]; combination with PD-0332991): A2 (A2=1 to <3)
